Experimental data from the NIST ThermoML archive (doi:10.1007/s10765-007-0223-x).

Assay: xn = mol fraction of the nth substance listed
Conditions: 101 kPa, Liquid; for speed of sound: Single path-length method

CCc1ccccc1 [ethylbenzene] + COC(C)(C)C
Conditions	mass density [kg/m3]	speed of sound [m/s]
288.15 K, x2 = 0	871.245	1360.7
288.15 K, x2 = 0.046	866.075	1348.3
288.15 K, x2 = 0.106	859.155	1334.4
288.15 K, x2 = 0.212	846.925	1307.2
288.15 K, x2 = 0.299	836.536	1284.6
288.15 K, x2 = 0.402	823.953	1256.7
288.15 K, x2 = 0.503	812.763	1231.4
288.15 K, x2 = 0.6	799.067	1201.3
288.15 K, x2 = 0.701	785.93	1171.9
288.15 K, x2 = 0.822	769.744	1136.2
288.15 K, x2 = 0.899	759.058	1112.7
288.15 K, x2 = 0.948	752.102	1097.3
290.65 K, x2 = 0	869.052	1349.9
290.65 K, x2 = 0.046	863.868	1337.6
290.65 K, x2 = 0.106	856.925	1323.4
290.65 K, x2 = 0.212	844.671	1296.3
290.65 K, x2 = 0.299	834.249	1273.7
290.65 K, x2 = 0.402	821.631	1245.6
290.65 K, x2 = 0.503	810.408	1220.2
290.65 K, x2 = 0.6	796.665	1190.1
290.65 K, x2 = 0.701	783.488	1160.5
290.65 K, x2 = 0.822	767.243	1124.5
290.65 K, x2 = 0.899	756.516	1100.7
290.65 K, x2 = 0.948	749.532	1085.4
293.15 K, x2 = 0	866.856	1339.4
293.15 K, x2 = 0.046	861.653	1326.8
293.15 K, x2 = 0.106	854.698	1312.7
293.15 K, x2 = 0.212	842.406	1285.5
293.15 K, x2 = 0.299	831.951	1262.8
293.15 K, x2 = 0.402	819.3	1234.6
293.15 K, x2 = 0.503	808.048	1209.2
293.15 K, x2 = 0.6	794.26	1179
293.15 K, x2 = 0.701	781.04	1149.3
293.15 K, x2 = 0.822	764.736	1113.2
293.15 K, x2 = 0.899	753.964	1089.2
293.15 K, x2 = 0.948	746.956	1073.8
295.65 K, x2 = 0	864.66	1328.9
295.65 K, x2 = 0.046	859.445	1316.3
295.65 K, x2 = 0.106	852.469	1302
295.65 K, x2 = 0.212	840.144	1274.8
295.65 K, x2 = 0.299	829.658	1252
295.65 K, x2 = 0.402	816.97	1223.7
295.65 K, x2 = 0.503	805.684	1198.2
295.65 K, x2 = 0.6	791.851	1167.8
295.65 K, x2 = 0.701	778.587	1138.1
295.65 K, x2 = 0.822	762.221	1101.8
295.65 K, x2 = 0.899	751.405	1077.7
295.65 K, x2 = 0.948	744.369	1062.3
298.15 K, x2 = 0	862.459	1318.4
298.15 K, x2 = 0.046	857.231	1306
298.15 K, x2 = 0.106	850.237	1291.4
298.15 K, x2 = 0.212	837.881	1264.1
298.15 K, x2 = 0.299	827.364	1241.2
298.15 K, x2 = 0.402	814.636	1212.7
298.15 K, x2 = 0.503	803.312	1187.3
298.15 K, x2 = 0.6	789.435	1156.8
298.15 K, x2 = 0.701	776.124	1127
298.15 K, x2 = 0.822	759.695	1090.5
298.15 K, x2 = 0.899	748.835	1066.3
298.15 K, x2 = 0.948	741.772	1050.8
300.65 K, x2 = 0	860.256	1307.9
300.65 K, x2 = 0.046	855.014	1295.8
300.65 K, x2 = 0.106	848.001	1280.9
300.65 K, x2 = 0.212	835.613	1253.5
300.65 K, x2 = 0.299	825.064	1230.5
300.65 K, x2 = 0.402	812.278	1201.5
300.65 K, x2 = 0.503	800.937	1176.4
300.65 K, x2 = 0.6	787.011	1145.7
300.65 K, x2 = 0.701	773.654	1115.9
300.65 K, x2 = 0.822	757.162	1079.2
300.65 K, x2 = 0.899	746.257	1054.9
300.65 K, x2 = 0.948	739.163	1039.4
303.15 K, x2 = 0	858.047	1297.5
303.15 K, x2 = 0.046	852.795	1285.5
303.15 K, x2 = 0.106	845.762	1270.4
303.15 K, x2 = 0.212	833.338	1242.9
303.15 K, x2 = 0.299	822.758	1219.8
303.15 K, x2 = 0.402	809.93	1190.7
303.15 K, x2 = 0.503	798.555	1165.5
303.15 K, x2 = 0.6	784.554	1134.2
303.15 K, x2 = 0.701	771.175	1104.8
303.15 K, x2 = 0.822	754.617	1068
303.15 K, x2 = 0.899	743.666	1043.6
303.15 K, x2 = 0.948	736.543	1028
305.65 K, x2 = 0	855.837	1287.1
305.65 K, x2 = 0.046	850.573	1275.2
305.65 K, x2 = 0.106	843.52	1260
305.65 K, x2 = 0.212	831.061	1232.4
305.65 K, x2 = 0.299	820.447	1209.2
305.65 K, x2 = 0.402	807.578	1180
305.65 K, x2 = 0.503	796.166	1154.7
305.65 K, x2 = 0.6	782.111	1123.2
305.65 K, x2 = 0.701	768.689	1093.7
305.65 K, x2 = 0.822	752.062	1056.8
305.65 K, x2 = 0.899	741.065	1032.3
305.65 K, x2 = 0.948	733.91	1016.6
308.15 K, x2 = 0	853.622	1276.8
308.15 K, x2 = 0.046	848.347	1264.9
308.15 K, x2 = 0.106	841.274	1249.5
308.15 K, x2 = 0.212	828.779	1221.9
308.15 K, x2 = 0.299	818.132	1198.5
308.15 K, x2 = 0.402	805.218	1169.2
308.15 K, x2 = 0.503	793.77	1144
308.15 K, x2 = 0.6	779.66	1112.2
308.15 K, x2 = 0.701	766.192	1082.7
308.15 K, x2 = 0.822	749.497	1045.6
308.15 K, x2 = 0.899	738.451	1021
308.15 K, x2 = 0.948	731.264	1005.2
310.65 K, x2 = 0	851.407	1266.5
310.65 K, x2 = 0.046	846.119	1254.8
310.65 K, x2 = 0.106	839.024	1239.2
310.65 K, x2 = 0.212	826.493	1211.5
310.65 K, x2 = 0.299	815.815	1188.1
310.65 K, x2 = 0.402	802.853	1158.6
310.65 K, x2 = 0.503	791.367	1133.2
310.65 K, x2 = 0.6	777.204	1101.4
310.65 K, x2 = 0.701	763.689	1071.8
310.65 K, x2 = 0.822	746.926	1034.6
310.65 K, x2 = 0.899	735.825	1009.8
310.65 K, x2 = 0.948	728.607	993.9
313.15 K, x2 = 0	849.186	1256.3
313.15 K, x2 = 0.046	843.886	1244.6
313.15 K, x2 = 0.106	836.773	1229
313.15 K, x2 = 0.212	824.202	1201
313.15 K, x2 = 0.299	813.486	1177.5
313.15 K, x2 = 0.402	800.48	1148
313.15 K, x2 = 0.503	788.959	1122.5
313.15 K, x2 = 0.6	774.736	1090.5
313.15 K, x2 = 0.701	761.174	1060.8
313.15 K, x2 = 0.822	744.341	1023.4
313.15 K, x2 = 0.899	733.188	998.53
313.15 K, x2 = 0.948	725.934	982.63
315.65 K, x2 = 0	846.964	1246.1
315.65 K, x2 = 0.046	841.648	1234.5
315.65 K, x2 = 0.106	834.515	1218.7
315.65 K, x2 = 0.212	821.909	1190.8
315.65 K, x2 = 0.299	811.155	1166.9
315.65 K, x2 = 0.402	798.107	1137.5
315.65 K, x2 = 0.503	786.547	1111.9
315.65 K, x2 = 0.6	772.257	1079.6
315.65 K, x2 = 0.701	758.651	1050
315.65 K, x2 = 0.822	741.744	1012.4
315.65 K, x2 = 0.899	730.538	987.36
315.65 K, x2 = 0.948	723.249	971.33
318.15 K, x2 = 0	844.741	1236.1
318.15 K, x2 = 0.046	839.413	1224.5
318.15 K, x2 = 0.106	832.261	1208.7
318.15 K, x2 = 0.212	819.612	1180.5
318.15 K, x2 = 0.299	808.784	1155.9
318.15 K, x2 = 0.402	795.73	1127
318.15 K, x2 = 0.503	784.128	1101.4
318.15 K, x2 = 0.6	769.777	1068.9
318.15 K, x2 = 0.701	756.122	1039.2
318.15 K, x2 = 0.822	739.136	1001.4
318.15 K, x2 = 0.899	727.875	976.23
318.15 K, x2 = 0.948	720.551	960.13
320.65 K, x2 = 0	842.518	1226.1
320.65 K, x2 = 0.046	837.173	1214.5
320.65 K, x2 = 0.106	830.003	1198.6
320.65 K, x2 = 0.212	817.315	1170.4
320.65 K, x2 = 0.299	806.474	1146
320.65 K, x2 = 0.402	793.356	1116.8
320.65 K, x2 = 0.503	781.711	1091
320.65 K, x2 = 0.6	767.333	1058.7
320.65 K, x2 = 0.701	753.581	1028.4
320.65 K, x2 = 0.822	736.516	990.46
320.65 K, x2 = 0.899	725.199	965.11
320.65 K, x2 = 0.948	717.839	948.99
323.15 K, x2 = 0	840.306	1216.3
323.15 K, x2 = 0.046	834.949	1204.7
323.15 K, x2 = 0.106	827.754	1188.8
323.15 K, x2 = 0.212	815.028	1160.5
323.15 K, x2 = 0.299	804.174	1136.3
323.15 K, x2 = 0.402	791.012	1106.9
323.15 K, x2 = 0.503	779.302	1080.8
323.15 K, x2 = 0.6	764.898	1048.8
323.15 K, x2 = 0.701	751.042	1017.8
323.15 K, x2 = 0.822	733.902	979.73
323.15 K, x2 = 0.899	722.521	954.17
323.15 K, x2 = 0.948	715.125	938
